In patent publication US9029337B2, “Modulation of factor 7 expression” (Isis Pharmaceuticals, Inc., priority 2007, dated 2015):
Strand notation (5' to 3'): a small letter for the sugar, then the base; units joined by * are phosphorothioate-linked, units joined directly phosphodiester-linked; [ ] holds rarer units or linkages, { } end groups; capitals alone tell only the bases. e = 2'-O-(2-methoxyethyl) (MOE); [5mC] = 5-methylcytosine; d = 2'-deoxy (DNA)

What follows are substances tested on human Factor 7 mRNA (assay: Antisense inhibition of human Factor 7 mRNA in HepB3 cells, 50 nM antisense oligonucleotide, lipofectin). Conditions: Table 1, 50 nM, lipofectin, approximately 24 hours, relative to untreated control cells.
Type: cell-based
Procedure: Antisense oligonucleotides targeted to a Factor 7 nucleic acid were tested for their effects on Factor 7 mRNA in vitro. Cultured HepB3 cells at a density of 4,000 cells per well were transfected using lipofectin reagent with 50 nM antisense oligonucleotide. After a treatment period of approximately 24 hours, RNA was isolated from the cells and Factor 7 mRNA levels were measured by real-time RT-PCR, as described herein. Factor 7 mRNA levels were adjusted according to total RNA content as measured by RIBOGREEN®. Results are presented as percent inhibition of Factor 7, relative to untreated control cells.
(§1) Antisense oligonucleotides targeted to a Factor 7 nucleic acid were designed and tested for their effects on Factor 7 mRNA in vitro. Certain antisense oligonucleotides from Table 3 were also retested for their effects on Factor 7 mRNA in vitro. Cultured HepB3 cells at a density of 4,000 cells per well were transfected using lipofectin reagent with 50 nM antisense oligonucleotide. After a treatment period of approximately 24 hours, RNA was isolated from the cells and Factor 7 mRNA levels were measured by real-time RT-PCR, as described herein. Human Factor 7 primer probe set RTS 2927 was used to measure mRNA levels. Factor 7 mRNA levels were adjusted according to total RNA content as measured by RIBOGREEN®. Results are presented as percent inhibition of Factor 7, relative to untreated control.
as §1, with “tested” for “tested for their effects on Factor 7 mRNA in vitro. Certain antisense oligonucleotides from Table 3 were also retested”
These gapmers were designed by creating gapmers shifted slightly upstream and downstream (i.e. “microwalk”) of the original gapmers from Table 7. Gapmers were also created with various motifs, e.g. 5-10-5 MOE, 3-14-3 MOE, and 2-13-5 MOE. These gapmers were tested in vitro. Cultured HepB3 cells at a density of 4,000 cells per well were transfected using lipofectin reagent with 50 nM antisense oligonucleotide. After a treatment period of approximately 24 hours, RNA was isolated from the cells and Factor 7 mRNA levels were measured by real-time RT-PCR. Factor 7 mRNA levels were adjusted according to total RNA content, as measured by RIBOGREEN®. Results are presented as percent inhibition of Factor 7, relative to untreated control cells.

Point of comparison: “407923 (antisense e[5mC]*eA*eG*eG*eA*d[5mC]*dA*dG*dT*dT*d[5mC]*dG*dA*d[5mC]*dG*e[5mC]*eA*eG*e[5mC]*e[5mC]) [compound 407923]”, “% Inhibition” value 76%. Against it:
- 407626 (antisense eT*e[5mC]*eT*eT*eG*dA*dT*dT*dT*dT*dG*dT*d[5mC]*dG*dA*eA*eA*e[5mC]*eA*eG) [compound 407626] — higher, 82%
- 407891 (antisense e[5mC]*eA*eT*eG*eG*dA*d[5mC]*dT*dT*dG*dA*dG*dG*d[5mC]*dA*e[5mC]*eA*e[5mC]*eT*eG) [compound 407891] — lower, 66%
- 407614 (antisense eT*eG*e[5mC]*eA*eG*dT*dA*d[5mC]*dT*dG*d[5mC]*dT*d[5mC]*dA*d[5mC]*eA*eG*e[5mC]*e[5mC]*eG) [compound 407614] — higher, 78%
- 407921 (antisense e[5mC]*e[5mC]*eA*e[5mC]*eA*dG*dG*d[5mC]*d[5mC]*dA*dG*dG*dG*d[5mC]*dT*eG*e[5mC]*eT*eG*eG) [compound 407921] — lower, 65%
- 407944 (antisense e[5mC]*e[5mC]*eA*eG*eT*dG*dG*dG*dT*dG*dG*d[5mC]*dA*dG*dG*e[5mC]*eA*e[5mC]*e[5mC]*eA) [compound 407944] — lower, 59%
- 407667 (antisense eG*eT*eG*eG*e[5mC]*d[5mC]*dA*dT*dG*d[5mC]*d[5mC]*d[5mC]*dT*dG*dG*eG*eT*e[5mC]*eA*eG) [compound 407667] — lower, 71%
- 407663 (antisense eT*eT*eG*e[5mC]*eA*dG*dG*d[5mC]*dA*dG*dG*dA*d[5mC]*dT*dG*eG*eT*eG*eG*eT) [compound 407663] — lower, 44%
- 407625 (antisense eT*eT*eG*eT*e[5mC]*dG*dA*dA*dA*d[5mC]*dA*dG*dT*dG*dG*eG*e[5mC]*e[5mC]*eG*e[5mC]) [compound 407625] — higher, 100%
- 407607 (antisense eT*eG*eG*eA*eG*d[5mC]*dT*dG*dG*dT*d[5mC]*d[5mC]*dT*dT*dG*e[5mC]*eA*eG*eG*eA) [compound 407607] — the same, 76%
- 403093 (antisense eG*eA*eG*eA*e[5mC]*d[5mC]*d[5mC]*dT*dG*dG*dT*dG*dT*dA*d[5mC]*eA*e[5mC]*e[5mC]*e[5mC]*e[5mC]) [compound 403093] — lower, 75%
- 407942 (antisense e[5mC]*eA*e[5mC]*eA*eG*dG*dT*dG*dT*dG*d[5mC]*dG*dG*dA*dG*eG*eA*eG*eA*e[5mC]) [compound 407942] — lower, 41%
- 407633 (antisense eG*e[5mC]*eA*eG*eG*d[5mC]*dA*dG*dT*d[5mC]*d[5mC]*dT*dG*dG*dG*eT*e[5mC]*eA*eT*e[5mC]) [compound 407633] — lower, 71%

Same assay, conditions: Table 6, 50 nM, lipofectin, approximately 24 hours

Point of comparison: “422193 (antisense eT*eG*eA*dG*d[5mC]*dG*d[5mC]*dG*dG*dA*dA*dG*dA*dA*dG*dG*dG*eA*e[5mC]*eG) [compound 422193]”, “% Inhibition” value 6%. Against it:
- 422117 (antisense eG*eG*eA*eA*eG*dA*dA*dG*dG*dG*dA*d[5mC]*dG*dG*dA*eA*eG*eG*eT*eG) [compound 422117] — lower, 1%
- 422124 (antisense eT*eG*eA*eG*e[5mC]*dG*d[5mC]*dG*dG*dA*dA*dG*dA*dA*dG*eG*eG*eA*e[5mC]*eG) [compound 422124] — lower, 0%
- 422191 (antisense eA*eG*e[5mC]*dG*d[5mC]*dG*dG*dA*dA*dG*dA*dA*dG*dG*dG*dA*d[5mC]*eG*eG*eA) [compound 422191] — higher, 27%

Same assay, conditions: gapmers targeted to nucleobases 4868 to 4899 of SEQ ID NO: 1, Table 8

Point of comparison: “422300 (antisense eG*eA*dG*d[5mC]*d[5mC]*d[5mC]*dG*dA*dG*dT*dT*d[5mC]*dT*dG*d[5mC]*eA*eG*eG*eA*eG) [compound 422300]”, “% Inhibition of human Factor 7 mRNA levels” value 65%. Against it:
- 422302 (antisense eA*eG*dG*dA*dG*d[5mC]*d[5mC]*d[5mC]*dG*dA*dG*dT*dT*d[5mC]*dT*eG*e[5mC]*eA*eG*eG) [compound 422302] — higher, 67%

Same assay, conditions: lipofectin, 50 nM antisense oligonucleotide, approximately 24 hours, Factor 7 mRNA by real-time RT-PCR (RTS 2927), relative to untreated control

Point of comparison: “416424 (antisense eG*eA*eG*eA*e[5mC]*d[5mC]*dA*dT*dG*dA*dT*dG*dA*dA*dA*eT*e[5mC]*eT*e[5mC]*eT) [compound 416424]”, “% Inhibition” value 27%. Against it:
- 416454 (antisense e[5mC]*eG*eT*eG*e[5mC]*dT*d[5mC]*dG*d[5mC]*d[5mC]*d[5mC]*dA*dG*d[5mC]*dA*e[5mC]*e[5mC]*eG*e[5mC]*eG) [compound 416454] — higher, 56%
- 416521 (antisense e[5mC]*eA*e[5mC]*e[5mC]*e[5mC]*d[5mC]*dA*d[5mC]*d[5mC]*dA*dG*dG*dT*dT*dG*eT*eG*e[5mC]*eA*e[5mC]) [compound 416521] — higher, 36%
- 416450 (antisense eG*eG*eT*eT*eT*dG*d[5mC]*dT*dG*dG*d[5mC]*dA*dT*dT*dT*e[5mC]*eT*eT*eT*eT) [compound 416450] — higher, 49%
- 416505 (antisense eG*e[5mC]*eA*eG*eA*dT*dT*dT*dG*d[5mC]*dA*dT*d[5mC]*dA*dG*eA*eA*eA*eA*eG) [compound 416505] — higher, 45%
- 416537 (antisense eT*eG*eA*e[5mC]*e[5mC]*dA*d[5mC]*dT*d[5mC]*dT*dT*d[5mC]*d[5mC]*dG*dA*eG*e[5mC]*eA*eG*e[5mC]) [compound 416537] — higher, 55%

Same assay, conditions: oligonucleotides targeted to nucleobases 11830 to 11869 of SEQ ID NO: 1 (Table 9)

Point of comparison: “422234 (antisense eT*eG*dG*dT*d[5mC]*dA*dG*dG*dG*d[5mC]*dT*dG*dG*dT*dT*eT*eT*eG*eG*eA) [compound 422234]”, “% Inhibition (human Factor 7 mRNA levels)” value 62%. Against it:
- 422165 (antisense eG*eG*eA*dG*dA*d[5mC]*dA*dA*dT*dG*dG*dT*d[5mC]*dA*dG*dG*dG*e[5mC]*eT*eG) [compound 422165] — lower, 57%
- 422104 (antisense eG*eG*e[5mC]*eT*eG*dA*dG*dG*dA*dG*dA*d[5mC]*dA*dA*dT*eG*eG*eT*e[5mC]*eA) [compound 422104] — lower, 59%
- 422166 (antisense eA*eG*eG*dA*dG*dA*d[5mC]*dA*dA*dT*dG*dG*dT*d[5mC]*dA*dG*dG*eG*e[5mC]*eT) [compound 422166] — higher, 63%
- 422168 (antisense eT*eG*eA*dG*dG*dA*dG*dA*d[5mC]*dA*dA*dT*dG*dG*dT*d[5mC]*dA*eG*eG*eG) [compound 422168] — lower, 30%
- 422097 (antisense eG*eA*eG*eA*e[5mC]*dA*dA*dT*dG*dG*dT*d[5mC]*dA*dG*dG*eG*e[5mC]*eT*eG*eG) [compound 422097] — lower, 59%

Same assay, conditions: oligonucleotides targeted to nucleobases 13760 to 13789 of SEQ ID NO: 1 (Table 10)

For “422114 (antisense e[5mC]*eG*e[5mC]*e[5mC]*eA*d[5mC]*d[5mC]*d[5mC]*dG*d[5mC]*d[5mC]*dG*dG*d[5mC]*dT*e[5mC]*eT*eG*e[5mC]*eT) [compound 422114]”, the “% Inhibition (human Factor 7 mRNA levels)” value was 50%.

Same assay, conditions: oligonucleotides targeted to nucleobases 14707 to 14732 of SEQ ID NO: 1 (Table 11)

Point of comparison: “422283 (antisense e[5mC]*eA*dG*d[5mC]*dA*dG*d[5mC]*d[5mC]*dT*dG*dA*dG*dG*d[5mC]*d[5mC]*eA*eG*e[5mC]*eA*eG) [compound 422283]”, “% Inhibition (human Factor 7 mRNA levels)” value 50%. Against it:
- 422277 (antisense e[5mC]*e[5mC]*dT*dG*dA*dG*dG*d[5mC]*d[5mC]*dA*dG*d[5mC]*dA*dG*dA*eT*e[5mC]*eA*e[5mC]*eG) [compound 422277] — higher, 56%

Same assay, conditions: oligonucleotides targeted to nucleobases 15098 to 15122 of SEQ ID NO: 1 (Table 12)

Point of comparison: “422136 (antisense e[5mC]*eA*eG*e[5mC]*eA*d[5mC]*dA*d[5mC]*dA*dT*dG*dG*dA*dG*dT*e[5mC]*eA*eG*e[5mC]*eA) [compound 422136]”, “% Inhibition (human Factor 7 mRNA levels)” value 57%. Against it:
- 422284 (antisense e[5mC]*eA*d[5mC]*dA*d[5mC]*dA*dT*dG*dG*dA*dG*dT*d[5mC]*dA*dG*e[5mC]*eA*eT*e[5mC]*eG) [compound 422284] — lower, 43%
- 422135 (antisense eA*eG*e[5mC]*eA*e[5mC]*dA*d[5mC]*dA*dT*dG*dG*dA*dG*dT*d[5mC]*eA*eG*e[5mC]*eA*eT) [compound 422135] — lower, 53%
- 422207 (antisense e[5mC]*eA*e[5mC]*dA*d[5mC]*dA*dT*dG*dG*dA*dG*dT*d[5mC]*dA*dG*d[5mC]*dA*eT*e[5mC]*eG) [compound 422207] — lower, 41%
